Assay results published in US20130136721A1, “Compositions and Methods of Generating a Differentiated Mesodermal Cell” (THE JOHNS HOPKINS UNIVERSITY, priority 2010, published 2013).
Entries after “also recorded” stand apart in the source; their conditions may differ.

How the values were obtained:
Format in all cases: cell-based, human
H9 hESC = test: Beating hEB assay (contracting hEB after forced aggregation cardiac differentiation); settings: for effect on cardiac differentiation, phase 2 medium: supplement in d0-d2 medium; for effect on cardiac differentiation, phase 2 medium / effect on cardiac differentiation, phase 3 medium: contracting hEB d9; for effect on cardiac differentiation, phase 3 medium: supplement in d2-d4 medium; for effect on cardiac differentiation, phase 4 medium: supplement in d4 onwards medium
Excerpt: The cardiac differentiation protocol was divided into four distinct phases for optimization (FIG. 3A): phase 1: uniform undifferentiated growth; phase 2: hEB formation/mesoderm induction; phase 3: hEB cardiac specification; phase 4: contracting cardiomyocyte development. […] After an initial round of optimizations had been completed, optimizations was repeated a second time to account for the new media formulations and then a third time to optimize the final media formulation. In some cases fourth and fifth repeats were performed to improve the statistical power of the results. For each variable tested, the bell-curve distribution of dose-response was determined. Results shown are averages of the 2nd-5th replicates (FIG. 2B).
For forced aggregation hEB differentiations, confluent hESC or hiPSC which had been grown on a commercially available extracellular matrix, Geltrex (Invitrogen) as monolayers for 3 to 13 passages were passaged with TrypLE Select and seeded at 2.5×10^6 per T25 flask. After 24 hours growth, cells were washed with PBS and treated with room temperature TrypLE Select for 1 minute at 37° C. Cells were seeded at 5000 cells per well in 96-well V-bottom uncoated plates (249952, NUNC) in 100 μL per well RPMI+PVA medium consisting of RPMI Media 1640 (with L-Glutamine), 4 mg mL-1 polyvinyl alcohol (P8136, Sigma, dissolved in RPMI at 4° C. for at least 72 hours, mixing by inversion every day), 1% chemically defined lipid concentrate, 10 μg mL-1 recombinant human insulin (Sigma), 400 μM 1-thioglycerol (Sigma), 25 ng mL-1 BMP4 and 5 ng mL-1 FGF2 (both from R&D systems), 1 μM Y-27632 (Calbiochem). This medium is not stable and was made fresh for each experiment. After 48 hours (on day 2) medium was aspirated with a Costar 8-channel aspirator (Corning) and replaced with RPMI+FBS medium consisting RPMI Media 1640, 20% characterized FBS (Hyclone), 400 μM 1-thioglycerol. On day 4 media was changed to RPMI+PVA without growth factors and hEB were transferred to 96-well U-bottom tissue culture treated plates (650180, Greiner Bio-One). Media was changed on d7 and every 3 days afterwards. hEB were visually assessed for contraction on d9 using a Nikon Eclipse Ti inverted tissue culture microscope with a TOKAI-HIT heated stage (Nikon). Images were captured using NIS-Elements (Nikon). […] For traditional cardiac differentiations using FBS, undirected differentiation was performed as previously described (Kehat et al. J Clin Invest 108, 407-414 (2001)): briefly, confluent H9 hESC grown as colonies on MEF were treated with collagenase IV for 5 minutes at 37° C. then washed from the plate using a 5 mL pipette. Cell clusters were then transferred to Petri dishes in 20% FBS medium for 7 days. hEB were then transferred to gelatin coated tissue culture plates. Media was changed every 3 days.
One single replicate consists of one 96-well plate. Repeat replicates were performed 1-4 months apart using a different vial of cells. Each experiment was repeated at least 3 times representing at least 288 hEB. Total number of hEB assessed in this work exceeds 80,000. Wells in which no hEB was detected due to pipeting error were excluded and accounted for approximately 1-5% of wells. P-values were established using unpaired two-tailed Student's t-test.

H9 hEB = test: Voltage optical micromapping of contracting hEB (action potential duration); settings: 20 μM isoproterenol, 4 hEB, mean±s.d., p≈0.01 paired t-test
Experimental: Cardiac markers and structural protein expression was assessed using immunofluorescence staining. […] To assess quality of hPSC-derived cardiomyocytes that were generated using this method and suitability for future applications such as cardiotoxicity testing, the electrophysiological properties were assessed via optical mapping. hEB were either mechanically dissected and plated onto fibronectin-coated glass coverslips for micromapping, or approximately 200 hEB were dissociated into single cells and plated in a 10 mm diameter area as a confluent monolayer for macromapping. hEB and monolayers were then stained with either voltage- or calcium-sensitive dye and optically mapped to visualize spontaneous activity and response to electrical field stimulation (FIG. 12A). […] To assess cardioactive drug responsiveness, 20 μM isoproterenol or 100 μM pinacidil was added to cardiomyocyte monolayers or hEB to test for beta-adrenergic stimulation response and the presence of functional KATP channels, respectively. […] Contracting hEB derived from the hiPSC line 6.2 were tested in the same manner and yielded similar results. […]

[1] = system: hESC-derived cardiomyocyte monolayer; test: Voltage macromapping of cardiomyocyte monolayer (action potential duration); settings: for effect on action potential: 20 μM isoproterenol or 100 μM pinacidil added to cardiomyocyte monolayers or hEB; for action potential duration: 0.67 Hz pacing, mean±s.d., 20 μM isoproterenol or 100 μM pinacidil, control 363±137 ms
Experimental: Cardiac markers and structural protein expression was assessed using immunofluorescence staining. […] To assess quality of hPSC-derived cardiomyocytes that were generated using this method and suitability for future applications such as cardiotoxicity testing, the electrophysiological properties were assessed via optical mapping. hEB were either mechanically dissected and plated onto fibronectin-coated glass coverslips for micromapping, or approximately 200 hEB were dissociated into single cells and plated in a 10 mm diameter area as a confluent monolayer for macromapping. hEB and monolayers were then stained with either voltage- or calcium-sensitive dye and optically mapped to visualize spontaneous activity and response to electrical field stimulation (FIG. 12A). […] To assess cardioactive drug responsiveness, 20 μM isoproterenol or 100 μM pinacidil was added to cardiomyocyte monolayers or hEB to test for beta-adrenergic stimulation response and the presence of functional KATP channels, respectively. […] Contracting hEB derived from the hiPSC line 6.2 were tested in the same manner and yielded similar results.
For optical micromapping (Weinberg et al., Methods Mol Biol 660, 215-237 (2010), contracting hEB were mechanically dissected, plated on fibronectin-coated glass coverslips and given at least 5 days to attach. hEB were then stained with either 10 μM Rhod-2-AM calcium dye for 20 minutes or 10 μM di-4-ANEPPS voltage dye for 5 minutes. After several rinses with Tyrode's solution (135 mM NaCl, 5.4 mM KCl, 1.8 mM CaCl2, 1 mM MgCl2, 0.33 mM NaH2PO4, 5 mM HEPES, and 5 mM glucose), hEB were incubated with 30 μM blebbistatin for 15 minutes to inhibit excitation-contraction coupling and subsequently prevent signal distortion due to motion artifact. The absence of hEB contraction was confirmed visually. hEB were then excited at 530 nm to visualize spontaneous activity and response to electrical field stimulation. Imaging of transmembrane potential (Vm) or intracellular calcium (Cai) was performed using an Andor iXon+860 electron multiplying charged coupled device (EMCCD) camera (128×128 pixels) at 490 Hz sampling rate. […] Macromapping of hESC-CM monolayers was performed using contact fluorescent imaging, in which maps of Vm were recorded by placing the monolayer directly on top of a bundle of 253 optical fibers 1 mm in diameter, arranged in a tightly packed, 17-mmdiameter hexagonal array. […] To analyze data, the individual recorded signals recorded were spatially filtered using a 5×5 box filter, temporally filtered using a 10 point median filter, baseline-corrected by subtraction of a fitted 3rd order polynomial, and range-normalized. […] Uniformity of APD was assessed by the coefficient of variation. […]

Row | Compound | effect on cardiac differentiation, phase 2 medium (H9 hESC) | effect on cardiac differentiation, phase 3 medium (H9 hESC) | also measured
1 | OCC(O)CS (stereo not drawn) [1-thioglycerol] | resulted in high efficiency cardiac differentiation | most suitable antioxidant for this phase | effect on cardiac differentiation, phase 4 medium (H9 hESC): essential for this d4+ phase
2 | O=C1O[C@H]([C@@H](O)CO)C(O)=C1O [L-ascorbic acid] | either did not further enhance differentiation or had negative effects on differentiation | Neither transferrin, L-ascorbic acid, lipids or NEAA enhanced this phase of differentiation | 
3 | NC(=O)CC[C@H](N)C(=O)O [L-glutamine] | either did not further enhance differentiation or had negative effects on differentiation | did not enhance cardiac differentiation | 
4 | C[C@@H](N)[C@H]1CC[C@H](C(=O)Nc2ccncc2)CC1 [Y-27632, reference compound] | further improved reproducibility and cardiac differentiation |  | 
5 | CC(C)NCC(O)c1ccc(O)c(O)c1 (stereo not drawn) [isoproterenol] |  |  | shortening of the mean APD (H9 hEB): 23 ± 8 ms; effect on action potential [1]: shortening of the action potential; action potential duration [1]: 262 ± 107 ms
6 | CC(N/C(=N\C#N)Nc1ccncc1)C(C)(C)C (stereo not drawn) [pinacidil] |  |  | effect on action potential [1]: shortening of the action potential; action potential duration [1]: 257 ± 56 ms
7 | FGF2: fibroblast growth factor 2 |  | did not further enhance this phase; also recorded: did not enhance cardiac differentiation | 
8 | IGF1: growth factor titrated between 1-100 ng mL-1 | none were found to have the same potency as BMP4 |  | 
9 | IGF2: growth factor titrated between 1-100 ng mL-1 | none were found to have the same potency as BMP4 |  | 
10 | TGFB | none were found to have the same potency as BMP4 |  | 
11 | WNT3A | none were found to have the same potency as BMP4 |  | 
12 | insulin: recombinant human insulin (Sigma) |  | completely abrogated cardiac specification; also recorded: completely ablated cardiac differentiation | effect on cardiac differentiation, phase 4 medium (H9 hESC): did not effect this d4+ phase; effect on cardiac differentiation, xeno- and serum-free d2-d4 medium (H9 hESC; supplement in serum-free d2-d4 medium): inhibited cardiac differentiation
